Results reported in ChEMBL document CHEMBL1201862, “PubChem BioAssay data set” (2004).
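Cultured in 96-well plates, cells were exposed to test compound for 48 hours across five concentrations. GI50 is the concentration that inhibits growth by half.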 Calls of active or inactive are those of the source. No stated cut-off is given here; in the data, active = GI50 up to about 1.1 µM and inactive = higher.

Experiments:
Assay in all cases: inhibition of tumour cell growth, NCI panel, 48 h
[1] = system: A549
[2] = system: NCI-H226
[3] = system: UACC-62
[4] = system: UACC-257
[5] = system: SK-MEL-2
[6] = system: SNB-78
[7] = system: DMS-273
[8] = system: SF-268
[9] = system: XF498
[10] = system: HT-29
[11] = system: SN12C
[12] = system: KM-20L2
[13] = system: RPMI-8226
[14] = system: KM12
[15] = system: CCRF-CEM
[16] = system: M19-MEL
[17] = system: LOX IMVI
[18] = system: NCI-H522
[19] = system: RXF 393
[20] = system: DLD-1
[21] = system: NCI-H23
[22] = system: MOLT-4
[23] = system: HOP-62
[24] = system: K562
[25] = system: HCC 2998
[26] = system: SK-OV-3
[27] = system: SNB-19
[28] = system: SK-MEL-28
[29] = system: HOP-92
[30] = system: OVCAR-3
[31] = system: HOP-18
[32] = system: 786-0
[33] = system: UO-31
[34] = system: EKVX
[35] = system: OVCAR-8
[36] = system: Malme-3M
[37] = system: NCI-H460
[38] = system: SK-MEL-5
[39] = system: SW-620
[40] = system: HCT-116
[41] = system: SR
[42] = system: HL-60
[43] = system: SF-539
[44] = system: SNB-75
[45] = system: IGROV-1
[46] = system: OVCAR-5
[47] = system: U-251
[48] = system: M14
[49] = system: ACHN
[50] = system: RXF 631
[51] = system: CAKI-1
[52] = system: LXFL 529
[53] = system: COLO 205
[54] = system: OVCAR-4
[55] = system: SF-295
[56] = system: TK-10

Compound: CCCCCCCCCCCCNC1(C)CNCCCNCCNCCCNC1
- GI50 [1]: 1.76 µM (inactive)
- GI50 [2]: 1.51 µM (inactive)
- GI50 [3]: 1.82 µM (inactive)
- GI50 [4]: 1.76 µM (inactive)
- GI50 [5]: 1.9 µM (inactive)
- GI50 [6]: 1.82 µM (inactive)
- GI50 [7]: 0.475 µM (active)
- GI50 [8]: 1.34 µM (inactive)
- GI50 [9]: 1.93 µM (inactive)
- GI50 [10]: 1.58 µM (inactive)
- GI50 [11]: 1.67 µM (inactive)
- GI50 [12]: 1.66 µM (inactive)
- GI50 [13]: 1.63 µM (inactive)
- GI50 [14]: 1.53 µM (inactive)
- GI50 [15]: 1.38 µM (inactive)
- GI50 [16]: 1.72 µM (inactive)
- GI50 [17]: 1.84 µM (inactive)
- GI50 [18]: 1.82 µM (inactive)
- GI50 [19]: 1.56 µM (inactive)
- GI50 [20]: 1.67 µM (inactive)
- GI50 [21]: 1.71 µM (inactive)
- GI50 [22]: 1.43 µM (inactive)
- GI50 [23]: 1.98 µM (inactive)
- GI50 [24]: 1.89 µM (inactive)
- GI50 [25]: 1.79 µM (inactive)
- GI50 [26]: 1.82 µM (inactive)
- GI50 [27]: 1.76 µM (inactive)
- GI50 [28]: 1.87 µM (inactive)
- GI50 [29]: 1.85 µM (inactive)
- GI50 [30]: 1.82 µM (inactive)
- GI50 [31]: 1.68 µM (inactive)
- GI50 [32]: 1.75 µM (inactive)
- GI50 [33]: 2.29 µM (inactive)
- GI50 [34]: 3.56 µM (inactive)
- GI50 [35]: 1.55 µM (inactive)
- GI50 [36]: 2.01 µM (inactive)
- GI50 [37]: 1.33 µM (inactive)
- GI50 [38]: 1.68 µM (inactive)
- GI50 [39]: 1.79 µM (inactive)
- GI50 [40]: 1.32 µM (inactive)
- GI50 [41]: 1.61 µM (inactive)
- GI50 [42]: 0.726 µM (active)
- GI50 [43]: 1.87 µM (inactive)
- GI50 [44]: 1.73 µM (inactive)
- GI50 [45]: 1.07 µM (active)
- GI50 [46]: 2.23 µM (inactive)
- GI50 [47]: 1.08 µM (active)
- GI50 [48]: 1.79 µM (inactive)
- GI50 [49]: 1.78 µM (inactive)
- GI50 [50]: 1.93 µM (inactive)
- GI50 [51]: 1.87 µM (inactive)
- GI50 [52]: 1.67 µM (inactive)
- GI50 [53]: 1.74 µM (inactive)
- GI50 [54]: 2.07 µM (inactive)
- GI50 [55]: 1.51 µM (inactive)
- GI50 [56]: 1.7 µM (inactive)
